Measured values published in US20070249607A1, “NK-1 AND SEROTONIN TRANSPORTER INHIBITORS” (Bristol-Myers Squibb Company, priority 2006, published 2007).
Read-outs that look alike come from different tables or passages of the source.

Legend:
[1] = target: T1, neurokinin-1 (NK-1) receptor (Homo sapiens, UniProt P25103); assay: NK-1 Binding assay ([125I] Substance P competition, U373 cell membranes); conditions: U373 membranes, [125I] Substance P displacement, read-out: NK-1 IC50
T1 construct: a human glioblastoma-astrocytoma cell line that endogenously expresses the neurokinin-1 (NK-1) receptor; endogenous in cells; host or cells: U373 human glioblastoma-astrocytoma cells (membranes)
Method in brief: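 Membranes were prepared from U373 human glioblastoma-astrocytoma cells, which express NK-1 endogenously, in 50 mM Tris-HCl pH 7.4 with 3 mM MnCl2, BSA and protease inhibitors. IC50 taken as the midpoint of the specific-binding displacement curve.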

[2] = target: T2, human serotonin transporters (Homo sapiens, UniProt P31645); assay: Serotonin transporter binding assay ([3H]-citalopram competition, HEK-hSERT cell membranes)
T2 construct: expressed in transfected cells
Method in brief: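 Competition binding against 1 nM [3H]-citalopram (1 hr, 25 °C, Tris pH 7.4 with NaCl/KCl) on stably transfected HEK-hSERT cell membranes, bound ligand collected on filters. Fluoxetine (10 μM) defined nonspecific binding; curve midpoint gives IC50, convertible to Ki by Cheng–Prusoff.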

T1 sequence (P25103 whole entry): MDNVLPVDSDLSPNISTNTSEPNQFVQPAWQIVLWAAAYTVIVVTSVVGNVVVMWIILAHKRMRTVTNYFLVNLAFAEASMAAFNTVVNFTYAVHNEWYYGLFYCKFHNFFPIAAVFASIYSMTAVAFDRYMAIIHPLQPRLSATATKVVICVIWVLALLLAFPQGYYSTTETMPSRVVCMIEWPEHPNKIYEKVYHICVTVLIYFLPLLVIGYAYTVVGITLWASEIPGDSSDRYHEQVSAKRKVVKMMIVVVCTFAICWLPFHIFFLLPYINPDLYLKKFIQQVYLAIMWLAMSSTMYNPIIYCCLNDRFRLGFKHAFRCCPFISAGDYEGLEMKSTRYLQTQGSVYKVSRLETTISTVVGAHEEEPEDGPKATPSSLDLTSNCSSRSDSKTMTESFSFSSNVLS
T2 sequence (P31645 whole entry): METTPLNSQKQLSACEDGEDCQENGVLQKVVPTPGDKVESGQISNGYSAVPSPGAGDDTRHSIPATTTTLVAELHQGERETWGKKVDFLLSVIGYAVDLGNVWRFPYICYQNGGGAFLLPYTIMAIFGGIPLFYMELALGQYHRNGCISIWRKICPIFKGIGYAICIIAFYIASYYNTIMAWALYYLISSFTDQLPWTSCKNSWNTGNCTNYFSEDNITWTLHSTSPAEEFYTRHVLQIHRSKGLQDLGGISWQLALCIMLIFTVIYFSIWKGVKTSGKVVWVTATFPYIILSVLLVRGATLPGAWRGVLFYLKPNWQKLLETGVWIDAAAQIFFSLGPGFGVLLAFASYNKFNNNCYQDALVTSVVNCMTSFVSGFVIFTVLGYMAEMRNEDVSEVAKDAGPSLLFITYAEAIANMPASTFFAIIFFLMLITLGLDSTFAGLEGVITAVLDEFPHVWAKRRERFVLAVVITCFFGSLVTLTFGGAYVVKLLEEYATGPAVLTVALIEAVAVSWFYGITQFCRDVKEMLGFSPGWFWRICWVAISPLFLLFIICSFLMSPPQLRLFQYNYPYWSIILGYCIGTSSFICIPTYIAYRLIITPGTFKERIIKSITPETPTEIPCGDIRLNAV

## Cc1cc(-c2cc(COCC3(c4ccccc4)CCNCC3)cc(C(F)(F)F)c2)ccn1
[1]; Table 1
  IC50: 0.01 to 100 nM
[2]; Table 1, HEK-hSERT membranes, [3H]-citalopram displacement, read-out: SERT IC50
  IC50: 0.01 to 100 nM

## CN1CCC(COCc2cc(-c3c(F)c(F)c(C#N)c(F)c3F)cc(C(F)(F)F)c2)(c2ccccc2)CC1
[1]; Table 2
  IC50: 0.01 to 100 nM
[2]
  IC50: 0.01 to 100 nM
